As usually defined, the IC50 is the concentration that gives 50% inhibition.

We go through 2 compounds from patent US11414406B2, “Antagonists of the muscarinic acetylcholine receptor M4” (Vanderbilt University, priority 2018, dated 2022).

One assay addresses T1, Human M4 (Homo sapiens, UniProt P08173).
T1 construct: expressed in transfected cells
T1 sequence (P08173 1-479): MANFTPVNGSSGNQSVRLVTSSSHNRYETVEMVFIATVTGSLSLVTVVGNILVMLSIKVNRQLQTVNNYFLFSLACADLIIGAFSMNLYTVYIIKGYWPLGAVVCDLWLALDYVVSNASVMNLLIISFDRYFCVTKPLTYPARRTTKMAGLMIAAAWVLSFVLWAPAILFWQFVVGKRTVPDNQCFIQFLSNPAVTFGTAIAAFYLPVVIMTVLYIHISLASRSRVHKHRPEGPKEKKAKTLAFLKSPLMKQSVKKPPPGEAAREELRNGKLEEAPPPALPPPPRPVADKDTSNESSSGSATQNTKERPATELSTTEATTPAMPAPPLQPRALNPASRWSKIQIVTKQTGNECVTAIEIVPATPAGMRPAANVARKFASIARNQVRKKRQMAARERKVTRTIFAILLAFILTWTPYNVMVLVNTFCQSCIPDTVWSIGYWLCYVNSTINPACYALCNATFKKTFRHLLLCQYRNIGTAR
Nature of the assay: mAChR M4 cell-based functional assay (calcium flux, decrease of EC80 acetylcholine response). The conditions noted are these: M4/Gqi5/CHO-K1 cells. The procedure: Human M4 cDNA, along with the chimeric G protein Gqi5, were transfected into Chinese hamster ovary (CHO-K1) cells purchased from the American Type Culture Collection using Lipofectamine2000. M4/Gqi5/CHO cells were grown in Ham's F-12 medium containing 10% heat-inactivated fetal bovine serum (FBS), 20 mM HEPES, 500 μg/mL G418 sulfate, and 200 μg/mL Hygromycin B.
For high throughput measurement of agonist-evoked increases in intracellular calcium, CHO-K1 cells stably expressing muscarinic receptors were plated in growth medium lacking G418 and hygromycin at 15,000 cells/20 μL/well in Greiner 384-well black-walled, tissue culture (TC)-treated, clear-bottom plates (VWR). Cells were incubated overnight at 37° C. and 5% CO2. The next day, cells were washed using an ELX 405 (BioTek) with assay buffer; the final volume was then aspirated to 20 μL. Next, 20 μL of a 2.3 μM stock of Fluo-4/acetoxymethyl ester (Invitrogen, Carlsbad, Calif.), prepared as a 2.3 mM stock in DMSO and mixed in a 1:1 ratio with 10% (w/v) Pluronic F-127 and diluted in assay buffer, was added to the wells and the cell plates were incubated for 50 min at 37° C. and 5% CO2. Dye was removed by washing with the ELX 405 and the final volume was aspirated to 20 μL. Compound master plates were formatted in a 10 point concentration-response curve (CRC) format (1:3 dilutions) in 100% DMSO with a starting concentration of 10 or 1 mM using a BRAVO liquid handler (Agilent). Test compound CRCs were then transferred to daughter plates (240 nL) using the Echo acoustic plate reformatter (Labcyte, Sunnyvale, Calif.) and then diluted into assay buffer (40 μL) to a 2× stock using a Thermo Fisher Combi (Thermo Fisher Scientific, Waltham, Mass.).
Calcium flux was measured using the Functional Drug Screening System (FDSS) 6000 or 7000 (Hamamatsu Corporation, Tokyo, Japan) as an increase in the fluorescent static ratio. Compounds were applied to cells (20 μL, 2×) using the automated system of the FDSS at 2 seconds into the protocol and the data were collected at 1 Hz. At 143 s, 10 μL of an EC20 concentration of the muscarinic receptor agonist acetylcholine was added (5×), followed by the addition of 12 μL of an EC80 concentration of acetylcholine at the 268 s time point (5×). Agonist activity was analyzed as a concentration-dependent increase in calcium mobilization upon compound addition. Positive allosteric modulator activity was analyzed as a concentration-dependent increase in the EC20 acetylcholine response. Antagonist activity was analyzed as a concentration-dependent decrease in the EC80 acetylcholine response; for the purposes of the tables herein, an IC50 (inhibitory concentration 50) was calculated as a concentration-dependent decrease of the response elicited by an EC80 concentration of acetylcholine. Concentration-response curves were generated using a four-parameter logistical equation in XLFit curve fitting software (HMS, Bridgewater, N.J.) for Excel (Microsoft, Redmond, Wash.) or Prism (GraphPad Software, Inc., San Diego, Calif.) or the Dotmatics software platform (Dotmatics, Bishop's Stortford, UK).
Compounds were synthesized as described above. Activity (IC50 and Emin) was determined in the inAChR M4 cell-based functional assay as described above and the data are shown in Table 2. The compound numbers correspond to the compound numbers used in Examples 1 and 2 and Tables 1 and 2.
Background: Calcium flux is commonly read through the fluorescence of an indicator in the cells.

Assay [1] concerns catalepsy induced by the DA receptor antagonist haloperidol. Nature of the assay: haloperidol-induced catalepsy in mice. The format is in vivo. From the text:
Furthermore, haloperidol-induced catalepsy, a model of parkinsonian motor disability, is reduced in M4 knockout mice as compared to wild-type controls. […] The reversal by scopolamine was uncommonly robust and more pronounced than we observe with agents targeting a number of other targets being evaluated for potential antiparkinsonian effects, including metabotropic glutamate (mGlu) receptors mGlu4 or mGlu5, A2A adenosine receptors, and NMDA receptors. […] Taken together with the extensive studies of M4 modulation of basal ganglia and motor function, these studies provide compelling evidence that M4 is the dominant mAChR subtype involved in the antiparkinsonian effects of non-selective mAChR antagonists and provide support for discovery and development of selective M4 antagonists for treatment of neurodegenerative disease such as PD, dystonia, tardive dyskinesia and other movement disorders.

As for `Cn1cc2cc(-c3ccc(N[C@H]4[C@@H]5CN(CCC(C)(C)C)C[C@@H]54)nn3)ccc2n1` [Compound 39, (1R,5S,6s)-3-(3,3-dimethylbutyl)-N-[6-(2-methylindazol-5-yl)pyridazin-3-yl]-3-azabicyclo[3.1.0]hexan-6-amine], at Human M4 (% ACh maximum at 30 μM, read-out: Emin (% ACh maximum at 30 μM)), the remaining activity at 30 µM was determined as 5%. Further, the IC50 on Human M4 (decrease of response to EC80 acetylcholine) was 0.139 µM.

As to `CN1[C@@H]2C[C@@H](OC(=O)[C@H](CO)c3ccccc3)C[C@H]1[C@@H]1O[C@@H]12` [scopolamine], the “reduction of haloperidol-induced catalepsy” value in assay [1] (M4 KO mice) is “ineffective”. Besides, in assay [1] (WT mice), the “reversal of haloperidol-induced catalepsy” value is reported as “completely reversed”.
